According to patent US20240025907A1, “QUINAZOLINE PAN-KRas INHIBITORS” (Mirati Therapeutics, Inc., priority 2022, published 2024):

How the values were obtained:
Format in all cases: cell-based
[1] = test system: KRas-mediated Phosphorylation of ERK in HCT116 cells; assay: Cisbio HTRF pERK assay, HCT116 cells; settings: single point at 100 nM; for inhibition at 0.1 µM: Homo sapiens, HCT-116, HCT116 cells; for Inhibition (HTRF % at 100 nM) of KRas-mediated Phosphorylation of ERK, HCT116: HCT116 cells, 0.1 µM
[2] = test system: KRas-mediated Phosphorylation of ERK in H460 cells; assay: Cisbio HTRF pERK assay, H460 cells; settings: single point at 100 nM; for inhibition at 0.1 µM: Homo sapiens, NCI-H460, H460 cells; for Inhibition (HTRF % at 100 nM) of KRas-mediated Phosphorylation of ERK, H460: H460 cells, 0.1 µM
[3] = test system: KRas-mediated Phosphorylation of ERK in A549 cells; assay: Cisbio HTRF pERK assay, A549 cells; settings: single point at 100 nM; for inhibition at 0.1 µM: Homo sapiens, A549, A549 cells; for Inhibition (HTRF % at 100 nM) of KRas-mediated Phosphorylation of ERK, A549: A549 cells, 0.1 µM
[4] = test system: KRas-mediated Phosphorylation of ERK in H358 cells; assay: Cisbio HTRF pERK assay, H358 cells; settings: single point at 100 nM; for inhibition at 0.1 µM: Homo sapiens, NCI-H358, H358 cells; for Inhibition (HTRF % at 100 nM) of KRas-mediated Phosphorylation of ERK, H358: H358 cells, 0.1 µM

In the case of CCc1c(F)ccc2cc(O)cc(-c3ccc4c(N5CCCC6(CNS(=O)(=O)N6)C5)nc(OCC5(CN(C)C)CC5)nc4c3F)c12 (stereo not drawn) [Example 37, 7-(2-((1-((dimethylamino)methyl)cyclopropyl)methoxy)-7-(8-ethyl-7-fluoro-3-hydroxynaphthalen-1-yl)-8-fluoroquinazolin-4-yl)-2-thia-1,3,7-triazaspiro[4.5]decane 2,2-dioxide], the inhibition at 0.1 µM [1] is reported as 0% and the inhibition at 0.1 µM [2] is reported as 28%.
For CCc1c(F)ccc2cc(O)cc(-c3c(F)cc4c(N5CCOC[C@@](C)(O)C5)nc(OC[C@@]56CCCN5C[C@H](F)C6)nc4c3F)c12 (atropisomer, axis not shown; (aS)) [Example 65, (S)-4-((S)-7-(8-ethyl-7-fluoro-3-hydroxynaphthalen-1-yl)-6,8-difluoro-2-(((2R,7aS)-2-fluorohexahydro-1H-pyrrolizin-7a-yl)methoxy)quinazolin-4-yl)-6-methyl-1,4-oxazepan-6-ol], the “Inhibition (HTRF % at 100 nM) of KRas-mediated Phosphorylation of ERK, HCT116” value (“Inhibition (HTRF % at 100 nM) … HCT116” below) [1] was 16% and the “Inhibition (HTRF % at 100 nM) of KRas-mediated Phosphorylation of ERK, H460” value (“Inhibition (HTRF % at 100 nM) … H460” below) [2] was 1%.
CCc1c(F)ccc2cc(O)cc(-c3c(O)cc4c(N(C)C)nc(OC[C@@]56CCCN5C[C@H](F)C6)nc4c3F)c12 [Example 28, 4-(dimethylamino)-7-(8-ethyl-7-fluoro-3-hydroxynaphthalen-1-yl)-8-fluoro-2-(((2R,7aS)-2-fluorotetrahydro-1H-pyrrolizin-7a(5H)-yl)methoxy)quinazolin-6-ol] showed an inhibition at 0.1 µM [1] of 9% and an inhibition at 0.1 µM [2] of 8%.
CCc1c(F)ccc2cc(O)cc(-c3c(F)cc4c(N5CC6C(=O)NC(=O)C6C5)nc(OCC5(CN(C)C)CC5)nc4c3F)c12 (stereo not drawn) [Example 52, 5-(2-((1-((dimethylamino)methyl)cyclopropyl)methoxy)-7-(8-ethly-7-fluoro-3-hydroxynaphthalen-1-yl)-6,8-difluoroquinazolin-4-yl)tetrahydropyrrolo[3,4-c]pyrrole-1,3(2H,3aH)-dione] was tested, and the inhibition at 0.1 µM [3] was 33% and the inhibition at 0.1 µM [4] was 6%.
Molecule CCc1c(F)ccc2cc(O)cc(-c3c(F)cc4c(N5CCCC6(CC(O)C6)C5)nc(OCC5(CN(C)C)CC5)nc4c3F)c12 (stereo not drawn) [Example 53, 6-(2-((1-((dimethylamino)methyl)cyclopropyl)methoxy)-7-(8-ethyl-7-fluoro-3-hydroxynaphthalen-1-yl)-6,8-difluoroquinazolin-4-yl)-6-azaspiro[3.5]nonan-2-ol] has an inhibition at 0.1 µM [3] of 27% and an inhibition at 0.1 µM [4] of 40%.
CCc1c(F)ccc2cc(O)cc(-c3c(F)cc4c(N5C[C@@H]6C[C@H](C5)[C@H](O)C6)nc(OC[C@@]56CCCN5C[C@H](F)C6)nc4c3F)c12 (atropisomer, axis not shown; (aS)) [Example 68, (1R,5R,6R)-3-((S)-7-(8-ethyl-7-fluoro-3-hydroxynaphthalen-1-yl)-6,8-difluoro-2-(((2R,7aS)-2-fluorohexahydro-1H-pyrrolizin-7a-yl)methoxy)quinazolin-4-yl)-3-azabicyclo[3.2.1]octan-6-ol] was tested, and the “Inhibition (HTRF % at 100 nM) … HCT116” value [1] was 8% and the “Inhibition (HTRF % at 100 nM) … H460” value [2] was 14%.
CCc1c(F)ccc2cc(O)cc(-c3c(F)cc4c(N5CCCC6(C5)NC(=O)NC6=O)nc(OCC5(CN(C)C)CC5)nc4c3F)c12 (stereo not drawn) [Example 54, 7-(2-((1-((dimethylamino)methyl)cyclopropyl)methoxy)-7-(8-ethyl-7-fluoro-3-hydroxynaphthalen-1-yl)-6,8-difluoroquinazolin-4-yl)-1,3,7-triazaspiro[4.5]decane-2,4-dione] was tested, and the inhibition at 0.1 µM [3] was 61% and the inhibition at 0.1 µM [4] was 100%.
CCc1c(F)ccc2cc(O)cc(-c3c(F)cc4c(N5CCCn6nc(C(=O)N7CCCC7)cc6C5)nc(OC[C@@]56CCCN5C[C@H](F)C6)nc4c3F)c12 [Example 58, (5-(7-(8-ethyl-7-fluoro-3-hydroxynaphthalen-1-yl)-6,8-difluoro-2-(((2R,7aS)-2-fluorotetrahydro-1H-pyrrolizin-7a(5H)-yl)methoxy)quinazolin-4-yl)-5,6,7,8-tetrahydro-4H-pyrazolo[1,5-a][1,4]diazepin-2-yl)(pyrrolidin-1-yl)methanone] showed an inhibition at 0.1 µM [1] of 12% and an inhibition at 0.1 µM [2] of 58%.
In the case of CCc1c(F)ccc2cc(O)cc(-c3c(F)cc4c(N5CCOC[C@@](C)(O)C5)nc(OC[C@@]56CCCN5C[C@H](F)C6)nc4c3F)c12 (atropisomer, axis not shown; (aS)) [Example 66, (S)-4-((R)-7-(8-ethyl-7-fluoro-3-hydroxynaphthalen-1-yl)-6,8-difluoro-2-(((2R,7aS)-2-fluorohexahydro-1H-pyrrolizin-7a-yl)methoxy)quinazolin-4-yl)-6-methyl-1,4-oxazepan-6-ol], the “Inhibition (HTRF % at 100 nM) … HCT116” value [1] is reported as 97% and the “Inhibition (HTRF % at 100 nM) … H460” value [2] is reported as 97%.
In the case of CCc1c(F)ccc2cc(O)cc(-c3c(F)cc4c(N5CCCn6nc(C(=O)N(C)C)cc6C5)nc(OC[C@@]56CCCN5C[C@H](F)C6)nc4c3F)c12 (atropisomer, axis not shown; (aS)) [Example 64, 5-((S)-7-(8-ethyl-7-fluoro-3-hydroxynaphthalen-1-yl)-6,8-difluoro-2-(((2R,7aS)-2-fluorohexahydro-1H-pyrrolizin-7a-yl)methoxy)quinazolin-4-yl)-N,N-dimethyl-5,6,7,8-tetrahydro-4H-pyrazolo[1,5-a][1,4]diazepine-2-carboxamide], the “Inhibition (HTRF % at 100 nM) … HCT116” value [1] is reported as 14% and the “Inhibition (HTRF % at 100 nM) … H460” value [2] is reported as 3%.
CCc1c(F)ccc2cc(O)cc(-c3c(F)cc4c(N5CCCn6nncc6C5)nc(OC[C@@]56CCCN5C[C@H](F)C6)nc4c3F)c12 [Example 61, 4-(4-(7,8-dihydro-4H-[1,2,3]triazolo[1,5-a][1,4]diazepin-5(6H)-yl)-6,8-difluoro-2-(((2R,7aS)-2-fluorotetrahydro-1H-pyrrolizin-7a(5H)-yl)methoxy)quinazolin-7-yl)-5-ethyl-6-fluoronaphthalen-2-ol] was tested, and the inhibition at 0.1 µM [1] was 9% and the inhibition at 0.1 µM [2] was 36%.
Work on CCc1c(F)ccc2cc(O)cc(-c3c(F)cc4c(N5CCCC6(CC(=O)N6)C5)nc(OCC5(CN(C)C)CC5)nc4c3F)c12 (stereo not drawn) [Example 51, 6-(2-((1-((dimethylamino)methyl)cyclopropyl)methoxy)-7-(8-ethyl-7-fluoro-3-hydroxynaphthalen-1-yl)-6,8-difluoroquinazolin-4-yl)-1,6-diazaspiro[3.5]nonan-2-one] yielded an inhibition at 0.1 µM [3] of 6% and an inhibition at 0.1 µM [4] of 67%.
With CCc1c(F)ccc2cc(O)cc(-c3c(F)cc4c(N5CCC[C@@](C)(O)C5)nc(OCC56CCCN5CCC6)nc4c3F)c12 [Example 48, (3R)-1-(7-(8-ethyl-7-fluoro-3-hydroxynaphthalen-1-yl)-6,8-difluoro-2-((tetrahydro-1H-pyrrolizin-7a(5H)-yl)methoxy)quinazolin-4-yl)-3-methylpiperidin-3-ol] the inhibition at 0.1 µM [1] was 50% and the inhibition at 0.1 µM [2] was 75%.
CCc1c(F)ccc2cc(O)cc(-c3ccc4c(N5CCCn6nncc6C5)nc(OC[C@@]56CCCN5C[C@H](F)C6)nc4c3F)c12 [Example 44] showed an inhibition at 0.1 µM [3] of -9% and an inhibition at 0.1 µM [4] of 3%.
CCc1c(F)ccc2cc(O)cc(-c3ccc4c(N5CCCC6(CC(=O)N6)C5)nc(OCC5(CN(C)C)CC5)nc4c3F)c12 (stereo not drawn) [Example 38, 6-(2-((1-((dimethylamino)methyl)cyclopropyl)methoxy)-7-(8-ethyl-7-fluoro-3-hydroxynaphthalen-1-yl)-8-fluoroquinazolin-4-yl)-1,6-diazaspiro[3.5]nonan-2-one] was tested, and the inhibition at 0.1 µM [3] was 9% and the inhibition at 0.1 µM [4] was 16%.
For CCc1c(F)ccc2cc(O)cc(-c3c(F)cc4c(N5CCC[C@@](C)(O)C5)nc(OC[C@@]56CCCN5C[C@H](F)C6)nc4c3F)c12 (atropisomer, axis not shown; (aS)) [Example 69, (R)-1-((R)-7-(8-ethyl-7-fluoro-3-hydroxynaphthalen-1-yl)-6,8-difluoro-2-(((2R,7aS)-2-fluorotetrahydro-1H-pyrrolizin-7a(5H)-yl)methoxy)quinazolin-4-yl)-3-methylpiperidin-3-ol], the “Inhibition (HTRF % at 100 nM) of KRas-mediated Phosphorylation of ERK, A549” value [3] was 84% and the “Inhibition (HTRF % at 100 nM) of KRas-mediated Phosphorylation of ERK, H358” value [4] was 101%.
For CCc1c(F)ccc2cc(O)cc(-c3c(F)cc4c(N5CCCn6nc(C(=O)N(C)C)cc6C5)nc(OCC5(CN(C)C)CC5)nc4c3F)c12 [Example 55, 5-(2-((1-((dimethylamino)methyl)cyclopropyl)methoxy)-7-(8-ethyl-7-fluoro-3-hydroxynaphthalen-1-yl)-6,8-difluoroquinazolin-4-yl)-N,N-dimethyl-5,6,7,8-tetrahydro-4H-pyrazolo[1,5-a][1,4]diazepine-2-carboxamide], the inhibition at 0.1 µM [3] was -13% and the inhibition at 0.1 µM [4] was 2%.
In the case of CCc1c(F)ccc2cc(O)cc(-c3c(F)cc4c(N5CCC[C@@](C)(O)C5)nc(OC[C@@]56CCCN5C[C@H](F)C6)nc4c3F)c12 (atropisomer, axis not shown; (aS)) [Example 70, (R)-1-((S)-7-(8-ethyl-7-fluoro-3-hydroxynaphthalen-1-yl)-6,8-difluoro-2-(((2R,7aS)-2-fluorotetrahydro-1H-pyrrolizin-7a(5H)-yl)methoxy)quinazolin-4-yl)-3-methylpiperidin-3-ol], the “Inhibition (HTRF % at 100 nM) of KRas-mediated Phosphorylation of ERK, A549” value [3] is reported as 6% and the “Inhibition (HTRF % at 100 nM) of KRas-mediated Phosphorylation of ERK, H358” value [4] is reported as 24%.
